Laboratory results published in patent US11672864B2, “Nanostructured gels capable of controlled release of encapsulated agents” (The Brigham and Women's Hospital, Inc., priority 2010, dated 2023).
Blank lines part the entries; values can stand above or below the compound they belong to.

Assays:
[1] = Gelation and stability of Abz-derived amphiphiles; assay type: physicochemical
Experimental: A variety of Abz-derived amphiphiles were synthesized (Scheme 3-1). […] In general, mixtures of polar organic solvents with water gave the best gelation results, with only two pure organogels forming (Abz-Alloc in glycerol, and Abz-Chol in 1,4-dioxane). […] The four amphiphiles had widely different solubility and gelation properties, with each amphiphile forming at least two gels.
Gelation. To a vial containing solid amphiphile was added the appropriate solvent. The vial was sealed and heated over a heat gun (˜110° C. max) until amphiphile fully dissolved. The vial was allowed to cool undisturbed at room temperature, during which time gel formed. For all characterization gels were allowed to form for at least 45 minutes.

[2] = Gelation of Asc-Pal in solvents; assay type: physicochemical
Experimental: Typically, solvents (0.2 mL) were added to a glass scintillation vial with the gelator (0.5-5 wt/vol %) and sealed with a screw cap. The vial was heated to about 60-80° C. until the gelator was completely dissolved. The vial was placed on a stable surface and allowed to cool to room temperature. Typically after 15-45 min, the solution was transitioned into a viscous gel. Gelation was considered to have occurred when no gravitational flow was observed upon inversion of the glass vial, and resulted hydrogels are injectable. Asc-Pal formed gels in water, benzene, toluene, carbon tetrachloride, and acetonitrile; while a precipitate formed in dimethylformamide and dimethylsulfoxide. Asc-Pal was soluble in chloroform and methanol.

[3] = Gelation of Asc-Pal without and with dexamethasone; assay type: physicochemical; settings: 20% ethanol in water
Experimental: Self-assembly of the amphiphiles is a delicate process that could be affected by additional agents. To understand the affect of dexamethasone, gelation of Asc-Pal has been explored in 20% ethanol in water by varying concentration of Asc-Pal (1-5% wt/v) while keeping concentration of dexamethasone (2 mg) constant. Results in Table 6-2 reveal that presence of dexamethasone facilitates the self-assembly of Asc-Pal and strengthen the gelation.

[4] = system: glioma cell line, G55; assay: Cytotoxicity of CPT encapsulated SMS self-assembled fibers, G55; assay type: cell-based; settings: G55 cells in culture
Description: (§1) Cytotoxicity Studies of CPT Encapsulated SMS Self-Assembled Fibers. Prior to in vivo studies, evaluation of efficacy of drug delivery systems using appropriate cell lines is an essential step. Efficacy of CPT loaded SMS self-assembled fibers were investigated using glioma cell line, G55 and control cell line fibroblast, NIH3T3. […] We hypothesize that highly proliferative glioma G55 cells secretes high concentrations of enzymes that degrade the self-assembled fibers to release CPT efficiently, whereas free form of CPT degrades in the media due to its low half-life at physiological conditions. […] Encapsulation of Camptothecin and PARP-Inhibitor (AGO14699).

[5] = system: fibroblasts (NIH3T3); assay: Cytotoxicity of CPT encapsulated SMS self-assembled fibers, NIH3T3; assay type: cell-based; settings: Mus musculus; NIH3T3 fibroblasts in culture; unit inferred
Description: as §1

[6] = Gelation ability and minimum gelation concentration of SMS; assay type: physicochemical; settings: for Gelation ability: concentration around 5-9%
Description: MGC values of SMS have varied from 3 to 8 wt/v %.

- Gelation in pure organic solvent ([1]; glycerol): organogels
Structure (SMILES): C=CCOC(=O)Nc1cccc(C(N)=O)c1 [Abz-Alloc]

Structure (SMILES): CC(C)CCC[C@@H](C)[C@H]1CC[C@H]2[C@@H]3CC=C4CC(OC(=O)Nc5cccc(C(N)=O)c5)CC[C@]4(C)[C@H]3CC[C@]12C (stereo partly shown) [Abz-Chol]
- Gelation in pure organic solvent ([1]; 1,4-dioxane): organogels

Structure (SMILES): NC(=O)c1cccc(NC(=O)Oc2ccc([N+](=O)[O-])cc2)c1 [Abz-PNP]
- Stability of amphiphile [1]: decompose spontaneously

- Gelation behaviour ([2]; acetonitrile): gels
- Gelation behaviour ([2]; benzene): gels
- Gelation behaviour ([2]; carbon tetrachloride): gels
- Gelation behaviour ([2]; chloroform): soluble
- Gelation behaviour ([2]; dimethylformamide): precipitate
- Gelation behaviour ([2]; dimethylsulfoxide): precipitate
- Gelation behaviour ([2]; methanol): soluble
- Gelation behaviour ([2]; toluene): gels
- Gelation behaviour ([2]; water, gelator 0.5-5 wt/vol %): gels
- Gelation ([3]; 1% Asc-Pal, with dex (2 mg)): Weak
- Gelation ([3]; 1% Asc-Pal, without drug): Not gel
- Gelation ([3]; 2% Asc-Pal, with dex (2 mg)): Gel
- Gelation ([3]; 2% Asc-Pal, without drug): weak
- Gelation ([3]; 3% Asc-Pal, with dex (2 mg)): Gel
- Gelation ([3]; 3% Asc-Pal, without drug): Gel
- Gelation ([3]; 4% Asc-Pal, with dex (2 mg)): Gel
- Gelation ([3]; 4% Asc-Pal, without drug): Gel
- Gelation ([3]; 5% Asc-Pal, with dex (2 mg)): Gel
- Gelation ([3]; 5% Asc-Pal, without drug): Gel
Structure (SMILES): CCCCCCCCCCCCCCCC(=O)OC[C@H](O)[C@H]1OC(=O)C(O)=C1O [Asc-Pal, Ascorbyl palmitate]

Structure (SMILES): CC[C@@]1(O)C(=O)OCc2c1cc1n(c2=O)Cc2cc3ccccc3nc2-1 [Camptothecin]
- IC50 [4]: 30 nM
- IC50 [5]: 3.9 nM

- Gelation ability ([6]; Acetone): Precipitate
- Gelation ability ([6]; Acetonitrile (CH3CN)): Precipitate
- Gelation ability ([6]; Chloroform): Soluble
- Gelation ability ([6]; Dimethyl formamide (DMF)): Soluble
- Minimum Gelation Concentration ([6]; Dimethyl sulfoxide (DMSO)): 3% Wt/V %
- Gelation in gelling solvent ([6]; Dimethyl sulfoxide (DMSO) (Table 4-2)): Gel
- Gelation ability ([6]; Dimethyl sulfoxide (DMSO)): Gel
- Gelation ability ([6]; Dioxane): Soluble
- Gelation ability ([6]; Ethanol): Soluble
- Gelation ability ([6]; Ethyl acetate): Emulsion
- Minimum Gelation Concentration ([6]; Ethylene glycol): 5% Wt/V %
- Gelation in gelling solvent ([6]; Ethylene glycol (Table 4-2)): Gel
- Gelation in gelling solvent ([6]; Glycerol (Table 4-2)): Gel
- Gelation ability ([6]; Glycerol): Gel
- Gelation ability ([6]; Isobutanol): Soluble
- Gelation ability ([6]; Isopropanol): Soluble
- Minimum Gelation Concentration ([6]; Isopropyl palmitate): 3% Wt/V %
- Gelation in gelling solvent ([6]; Isopropyl palmitate (Table 4-2)): Gel
- Gelation ability ([6]; Isopropyl palmitate): Clear Gel
- Gelation ability ([6]; Methanol): Precipitate
- Gelation ability ([6]; Mono-ethylene glycol): Weak Gel
- Gelation ability ([6]; Polyethylene glycol dimethyl acrylate): Increased
- Gelation ability ([6]; Tetrachloro methane): Soluble
- Gelation ability ([6]; Tetrahydrofuran (THF)): Soluble
- Gelation ability ([6]; Toluene): Soluble
- Minimum Gelation Concentration ([6]; Water): 3% Wt/V %
- Gelation in gelling solvent ([6]; Water (Table 4-2)): Gel
- Gelation ability ([6]; Water): Gel
- Gelation ability ([6]; Xylene): Soluble
- Minimum gelation concentrations (MGC) ([6]; across different solvents): 3 to 8 wt/v %
- Minimum Gelation Concentration ([6]; glycerol): 8% Wt/V %
- Minimum Gelation Concentration ([6]; n-hexadecane): 2% Wt/V %
- Gelation in gelling solvent ([6]; n-hexadecane (Table 4-2)): Gel
- Gelation ability ([6]; n-hexadecane): Gel
- Minimum Gelation Concentration ([6]; n-hexane): 4% Wt/V %
- Gelation in gelling solvent ([6]; n-hexane (Table 4-2)): Gel
- Gelation ability ([6]; n-hexane): Gel
Structure (SMILES): CCCCCCCCCCCCCCCCCC(=O)OC[C@@H](O)[C@H]1OC[C@H](O)[C@H]1O [Sorbitane Monostearate, sorbitan monostearate]
